Experimental data as given in PMC8298633, “Cannabis constituents interact at the drug efflux pump BCRP to markedly increase plasma cannabidiolic acid concentrations” (Scientific Reports, 2021).
“Also recorded” adds a separate entry of the source.

Legend:
[1] = Pharmacokinetic study: plasma cannabinoids after single oral gavage of full-spectrum cannabis extract or individual cannabinoid; details: for Detection in plasma following oral administration of the full-spectrum extract / tmax / AUC / t1/2 / Cmax / Total plasma exposure in full-spectrum extract relative to individual compound, fold lower: mouse plasma; for Detection in plasma following oral administration of the full-spectrum extract: single oral dose of extract; for Total plasma exposure in full-spectrum extract relative to individual compound, fold lower: equivalent doses
Method: Drugs were administered by oral gavage in a volume of 5 mL/kg. Wildtype male and female mice (postnatal day 21–28, P21-28) received a single oral gavage of either the full-spectrum cannabis extract or an individual cannabinoid. Cannabinoid doses within the full-spectrum extract or as an individual cannabinoid were as follows in mg/kg: CBDA and Δ^9-THCA, 50; CBD, 25; Δ^9-THC, 15; CBC, 9; CBDVA and CBGA, 7; CBN, 2.5; CBG, 1.5; CBDV and Δ^9-THCV, < 1 (Fig. 1a). At selected time points (15–240 min), mice were anesthetized with isoflurane and whole blood was collected by cardiac puncture. Plasma was isolated by centrifugation (9000 g for 10 min, 4 °C) and stored at − 80 °C until assayed.
Concentrations of cannabinoids in plasma samples were quantified as described previously, [24], [58]. […] The organic layer was isolated by centrifugation (4000 g for 10 min) and evaporated to dryness with N2. Samples were reconstituted in acetonitrile and 0.1% formic acid in water (1:3.3, v/v) for supported-liquid extraction (SLE) with methyl tert-butyl ether (MTBE) using Biotage Isolute SLE+ columns (Uppsala, SWE). […] Quantification of cannabinoids was achieved by comparing samples to standards prepared with known amounts of drug.
Plasma concentrations at each time point were averaged and pharmacokinetic parameters were calculated by noncompartmental analysis. Elimination rate constants were determined by linear regression of the terminal component of the concentration–time curve using GraphPad Prism 8.2 (La Jolla, USA). The log-linear trapezoidal method was used to calculated total drug exposure (area under concentration–time curve) using equations described previously.

BCRP [2] = target: T1, BCRP (Homo sapiens, UniProt Q9UNQ0); assay: Bidirectional transwell substrate assay, MDCK cells expressing BCRP (with or without elacridar); details: for P (A > B): apical to basolateral; for P (B > A): basolateral to apical; for BCRP substrate status: human BCRP MDCK cells vs wildtype, with elacridar control; for efflux ratio at 240 min, 10 µM: human, r (transport efflux ratio)
T1 sequence (Q9UNQ0 1-655): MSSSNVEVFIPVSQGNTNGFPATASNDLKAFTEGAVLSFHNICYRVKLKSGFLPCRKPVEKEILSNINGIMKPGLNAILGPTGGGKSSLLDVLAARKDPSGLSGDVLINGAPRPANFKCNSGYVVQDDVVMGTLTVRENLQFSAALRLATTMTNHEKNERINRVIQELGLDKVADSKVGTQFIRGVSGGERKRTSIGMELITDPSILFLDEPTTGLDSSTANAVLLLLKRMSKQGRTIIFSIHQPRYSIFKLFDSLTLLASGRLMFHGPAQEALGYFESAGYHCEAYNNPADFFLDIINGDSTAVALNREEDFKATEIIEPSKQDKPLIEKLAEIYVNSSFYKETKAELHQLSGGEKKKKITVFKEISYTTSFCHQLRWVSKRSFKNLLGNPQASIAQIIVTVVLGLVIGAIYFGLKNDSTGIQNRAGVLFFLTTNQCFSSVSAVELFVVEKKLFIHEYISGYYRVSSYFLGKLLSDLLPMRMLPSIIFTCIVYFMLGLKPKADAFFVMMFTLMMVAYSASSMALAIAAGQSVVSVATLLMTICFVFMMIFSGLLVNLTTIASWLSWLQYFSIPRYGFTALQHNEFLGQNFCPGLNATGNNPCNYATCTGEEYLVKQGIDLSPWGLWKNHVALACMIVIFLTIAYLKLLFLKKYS
Method: (§1) We first aimed to determine whether the cannabinoids found in the full-spectrum cannabis extract were substrates of P-glycoprotein and BCRP by using MDCK cells expressing human P-glycoprotein or BCRP in vitro. Transwell assays were conducted to assess bidirectional transport of the cannabinoids detected in plasma following administration of the full-spectrum cannabis extract (CBD, CBDA, CBDVA, CBGA, Δ^9-THC and Δ^9-THCA), including the respective neutral compounds (CBDV and CBG) across wildtype, BCRP and P-glycoprotein MDCK cell monolayers. […] BCRP and P-glycoprotein preferentially transport substrates in the B > A direction.
(§2) Media in the donor chamber was then replaced with that containing 10 µM of an individual cannabinoid in the presence of either vehicle or inhibitor and returned to 37 °C. Aliquots (25 or 50 µL) were removed from the accepter chamber at 60, 120, 180 and 240 min.
(§3) Cannabinoids were analyzed as described above.

wildtype MDCK cells = assay: Bidirectional transwell transport assay, wildtype MDCK cell monolayers; details: wildtype MDCK cells, 10 µM cannabinoid; for P (A > B): apical to basolateral
Method: as §1, §2, §3

[3] = as above; details: dog, MDCK
Method: as §1, §2, §3

P-glycoprotein = P-glycoprotein (Homo sapiens, UniProt P08183); assay: Bidirectional transwell substrate assay, MDCK cells expressing P-glycoprotein; details: for P (A > B) / P (B > A) / efflux ratio at 240 min, 10 µM / r (transport efflux ratio): P-glycoprotein MDCK cells, 10 µM cannabinoid; for P (A > B): apical to basolateral; for P (B > A): basolateral to apical; for P-glycoprotein substrate status: human P-glycoprotein MDCK cells vs wildtype; for efflux ratio at 240 min, 10 µM: human, MDCK-MDR1, r (transport efflux ratio); for efflux ratio at 240 min, 10 µM / r (transport efflux ratio): substrate threshold 2.5
Method: as §1, §2, §3

BCRP [4] = target: T1, BCRP; assay: Inhibition of BCRP-mediated transport of prazosin (transwell, BCRP MDCK cells)
BCRP [5] = target: T1, BCRP; assay: Inhibition of BCRP-mediated transport of CBDA by cannabinoids (transwell, BCRP MDCK cells); details: BCRP MDCK cells
Method: Cannabinoids were tested at 10 µM. […] Data are expressed as means ± SEM, with n = 4 per time point. […] Schematic created using BioRender.com.
as §3

[6] = BCRP MDCK cells, 10 µM cannabinoid
[7] = BCRP MDCK cells, 10 µM cannabinoid, substrate threshold 1.5
[8] = oral, administered as individual cannabinoid, doses mg/kg: CBD 25, CBDA 50, CBDVA 7, CBGA 7, THC 15, THCA 50
[9] = oral, administered as individual cannabinoid, doses mg/kg: CBD 25, CBDA 50, CBDVA 7, THC 15, THCA 50
[10] = oral, administered in full-spectrum extract, doses mg/kg: CBD 25, CBDA 50, CBDVA 7, CBGA 7, THC 15, THCA 50

Chain of P-glycoprotein (P08183 whole entry): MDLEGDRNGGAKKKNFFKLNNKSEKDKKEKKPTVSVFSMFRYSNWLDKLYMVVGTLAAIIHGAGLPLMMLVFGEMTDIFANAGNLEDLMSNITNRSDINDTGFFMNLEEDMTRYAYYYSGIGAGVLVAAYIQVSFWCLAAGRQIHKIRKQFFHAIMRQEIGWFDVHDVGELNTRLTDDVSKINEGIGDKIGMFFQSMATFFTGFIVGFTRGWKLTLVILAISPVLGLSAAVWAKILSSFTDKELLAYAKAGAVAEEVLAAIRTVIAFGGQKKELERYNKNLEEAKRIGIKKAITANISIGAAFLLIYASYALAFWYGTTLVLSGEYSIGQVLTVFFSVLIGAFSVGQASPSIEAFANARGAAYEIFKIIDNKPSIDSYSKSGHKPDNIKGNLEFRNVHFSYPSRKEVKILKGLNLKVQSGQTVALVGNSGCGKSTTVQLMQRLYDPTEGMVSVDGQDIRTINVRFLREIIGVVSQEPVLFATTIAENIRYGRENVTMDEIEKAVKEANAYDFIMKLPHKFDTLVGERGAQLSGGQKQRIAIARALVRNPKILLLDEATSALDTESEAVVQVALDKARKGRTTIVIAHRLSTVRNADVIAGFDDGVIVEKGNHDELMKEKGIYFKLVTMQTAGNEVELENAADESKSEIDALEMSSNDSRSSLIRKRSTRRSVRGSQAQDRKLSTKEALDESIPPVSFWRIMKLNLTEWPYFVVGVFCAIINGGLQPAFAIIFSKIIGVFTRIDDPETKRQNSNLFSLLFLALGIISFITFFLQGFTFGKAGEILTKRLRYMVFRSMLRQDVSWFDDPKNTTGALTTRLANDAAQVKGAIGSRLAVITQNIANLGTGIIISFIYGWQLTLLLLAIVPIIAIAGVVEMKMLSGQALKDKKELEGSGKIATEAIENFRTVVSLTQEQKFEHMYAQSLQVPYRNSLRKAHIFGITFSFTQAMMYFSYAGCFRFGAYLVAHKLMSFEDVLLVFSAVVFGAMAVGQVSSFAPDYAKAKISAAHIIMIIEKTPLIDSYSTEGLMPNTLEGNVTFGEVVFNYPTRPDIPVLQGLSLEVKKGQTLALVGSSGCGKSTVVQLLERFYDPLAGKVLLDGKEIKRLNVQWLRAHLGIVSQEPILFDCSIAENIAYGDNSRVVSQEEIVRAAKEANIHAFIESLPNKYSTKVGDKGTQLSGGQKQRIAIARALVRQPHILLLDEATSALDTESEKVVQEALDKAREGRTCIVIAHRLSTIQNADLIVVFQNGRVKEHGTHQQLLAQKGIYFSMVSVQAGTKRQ

SMILES	Detection in plasma following oral administration of the full-spectrum extract [1]	P (A > B) (BCRP [2]; [6])	P (B > A) (BCRP [2]; [6])	BCRP substrate status (BCRP [2])	P (A > B) (wildtype MDCK cells)	Papp B→A at 240 min, 10 µM [3] [×10⁻⁶ cm/s]	P (A > B) (P-glycoprotein)	P (B > A) (P-glycoprotein)	P-glycoprotein substrate status (P-glycoprotein)	Total plasma exposure in full-spectrum extract relative to individual compound, fold lower ([1]; oral)	further results
CCCCCc1cc(O)c2c(c1)OC(C)(CCC=C(C)C)C=C2 (stereo not shown) [CBC]	not detected	–	–	–	–	–	–	–	–	–	–
C=C(C)[C@@H]1CCC(C)=C[C@H]1c1c(O)cc(CCC)cc1O [CBDV, cannabidivarin]	not detected	63 ± 14 × 10^−5 cm/s	90 ± 9 × 10^−5 cm/s	not considered a substrate of BCRP; also recorded: not substrates of either BCRP or P-glycoprotein	43 ± 5 × 10^−5 cm/s	440 ± 50	30 ± 8 × 10^−5 cm/s	34 ± 3 × 10^−5 cm/s	not substrates of either BCRP or P-glycoprotein	–	efflux ratio at 240 min, 10 µM (BCRP [2]; [7]): 1.4 ± 0.2; efflux ratio at 240 min, 10 µM [3]: 1 ± 0.2; efflux ratio at 240 min, 10 µM (P-glycoprotein): 1.1 ± 0.3
C=C(C)[C@@H]1CCC(C)=C[C@H]1c1c(O)cc(CCC)c(C(=O)O)c1O [CBDVA, cannabidivarinic acid]	detected	24 ± 9 × 10^−5 cm/s	47 ± 6 × 10^−5 cm/s	BCRP substrates	22 ± 3 × 10^−5 cm/s	–	14 ± 4 × 10^−5 cm/s	22 ± 2 × 10^−5 cm/s	not P-glycoprotein substrates	2–4 ×	r (transport efflux ratio) (BCRP [2]; [7]): 2.0 ± 0.4; P (A > B) of prazosin in the presence of inhibitor (BCRP [4]; 10 µM inhibitor, 1 µM prazosin): 15 ± 3 × 10^−2 cm/s; P (B > A) of prazosin in the presence of inhibitor (BCRP [4]; 10 µM inhibitor, 1 µM prazosin): 201 ± 4 × 10^−2 cm/s; Effect on BCRP-mediated transport of CBDA (BCRP [5]; 10 µM, compared to vehicle): Neither CBD nor CBDVA affected CBDA transport via BCRP; P (A > B) of CBDA in the presence of inhibitor (BCRP [5]; cannabinoids tested at 10 µM): 8 ± 1 × 10^−5 cm/s; P (B > A) of CBDA in the presence of inhibitor (BCRP [5]; cannabinoids tested at 10 µM): 63 ± 4 × 10^−5 cm/s; tmax [1, 8]: 0.25 h; AUC [1, 9]: 7459 µg·min/mL; t1/2 [1, 9]: 2.5 h; Cmax ([1]; oral, administered as individual cannabinoid, doses mg/kg: CBDA 50, CBDVA 7, CBGA 7): 26000 ± 2000 ng/mL; AUC [1, 10]: 3844 µg·min/mL; t1/2 [1, 10]: 2 h; tmax [1, 10]: 1 h; Cmax ([1]; oral, administered in full-spectrum extract, doses mg/kg: CBDA 50, CBDVA 7, CBGA 7): 11000 ± 1000 ng/mL; r (transport efflux ratio) (wildtype MDCK cells): 1.1 ± 0.2; P (B > A) (wildtype MDCK cells; basolateral to apical): 25 ± 2 × 10^−5 cm/s; r (transport efflux ratio) (P-glycoprotein): 1.6 ± 0.3
CCCCCc1cc(O)c(C/C=C(\C)CCC=C(C)C)c(O)c1 [CBG, cannabigerol]	not detected	47 ± 9 × 10^−5 cm/s	53 ± 10 × 10^−5 cm/s	weak substrates of BCRP	12 ± 5 × 10^−5 cm/s	100 ± 30	19 ± 5 × 10^−5 cm/s	14 ± 2 × 10^−5 cm/s	not P-glycoprotein substrates	–	efflux ratio at 240 min, 10 µM (BCRP [2]; [7]): 1.1 ± 0.3; Effect on BCRP-mediated transport of prazosin (BCRP [4]; 10 µM, compared to vehicle): not prazosin transport; efflux ratio at 240 min, 10 µM [3]: 0.8 ± 0.5
CCCCCc1cc(O)c(C/C=C(\C)CCC=C(C)C)c(O)c1C(=O)O [CBGA, cannabigerolic acid]	detected	–	5 ± 1 × 10^−5 cm/s	not substrates of either BCRP or P-glycoprotein	–	10 ± 10	5 ± 2 × 10^−5 cm/s	3 ± 1 × 10^−5 cm/s	not substrates of either BCRP or P-glycoprotein	2–4 ×	AUC ([1]; both, mouse, plasma, po, 7 mg/kg, AUC (does not include terminal phase), administered as individual cannabinoid, CBGA 7 mg/kg): 8670 µg·min/mL; AUC ([1]; both, mouse, plasma, po, AUC, oral, administered in full-spectrum extract, doses mg/kg: CBD 25, CBDA 50, CBDVA 7, CBGA 7, THC 15, THCA 50): 5170 µg·min/mL; Cmax ([1]; both, mouse, plasma, po, Cmax, oral, administered as individual cannabinoid, doses mg/kg: CBDA 50, CBDVA 7, CBGA 7): 48000 ± 2000 ng/mL; Cmax ([1]; both, mouse, plasma, po, Cmax, oral, administered in full-spectrum extract, doses mg/kg: CBDA 50, CBDVA 7, CBGA 7): 12000 ± 1000 ng/mL; half-life ([1]; both, mouse, plasma, po, t1/2, mouse plasma, oral, administered in full-spectrum extract, doses mg/kg: CBD 25, CBDA 50, CBDVA 7, CBGA 7, THC 15, THCA 50): 4.97 h; tmax ([1]; both, mouse, plasma, po, tmax, oral, administered as individual cannabinoid, doses mg/kg: CBD 25, CBDA 50, CBDVA 7, CBGA 7, THC 15, THCA 50): 2 h; tmax ([1]; both, mouse, plasma, po, tmax, oral, administered in full-spectrum extract, doses mg/kg: CBD 25, CBDA 50, CBDVA 7, CBGA 7, THC 15, THCA 50): ≤ 1 h; efflux ratio at 240 min, 10 µM (P-glycoprotein): 0.7 ± 0.5
CCCCCc1cc(O)c2c(c1)OC(C)(C)c1ccc(C)cc1-2 [CBN, cannabinol]	not detected	–	–	–	–	–	–	–	–	–	–
CCCCCc1cc2c(c(O)c1C(=O)O)C1C=C(C)CCC1C(C)(C)O2 (stereo not shown) [Δ^9-THCA, Δ^9-tetrahydrocannabinolic acid]	detected	–	6 ± 2 × 10^−5 cm/s	not substrates of either BCRP or P-glycoprotein	–	–	17 ± 5 × 10^−5 cm/s	8 ± 3 × 10^−5 cm/s	not substrates of either BCRP or P-glycoprotein	2–4 ×	tmax [1, 8]: 0.5 h; AUC [1, 9]: 173 µg·min/mL; t1/2 [1, 9]: 0.617 h; Cmax ([1]; oral, administered as individual cannabinoid, doses mg/kg: CBD 25, THC 15, THCA 50): 2094 ± 74 ng/mL; AUC [1, 10]: 44 µg·min/mL; t1/2 [1, 10]: 0.767 h; tmax [1, 10]: 0.75 h; Cmax ([1]; oral, administered in full-spectrum extract, doses mg/kg: CBD 25, THC 15, THCA 50): 465 ± 64 ng/mL; r (transport efflux ratio) (P-glycoprotein): 0.5 ± 0.4
CCCc1cc(O)c2c(c1)OC(C)(C)[C@@H]1CCC(C)=C[C@@H]21 [Δ^9-THCV, Δ^9-tetrahydrocannabivarin]	not detected	–	–	–	–	–	–	–	–	–	–
